For one compound, inhibition results are on record in publication PMC12294420, “Phytochemical Characterization, Bioactivities, and Nanoparticle-Based Topical Gel Formulation Development from Four Mitragyna speciosa Varieties” (Gels, 2025).

In assay [1] the target is T1, porcine pancreatic elastase (Sus scrofa, UniProt P00772).
T1 construct: gene CELA1; commercial native pancreatic enzyme (Sigma-Aldrich)
In words: Suc-Ala-Ala-Ala-pNA hydrolysis, […] nm kinetic. To be noted: read-out: % inhibition at 1 mg/mL. Format: biochemical.

The target of assay [2] is T2, bovine testis hyaluronidase (Bos taurus, UniProt Q2YDK3).
T2 construct: gene SPAM1; commercial native testis preparation (Sigma-Aldrich)
T2 sequence (Q2YDK3 36-553): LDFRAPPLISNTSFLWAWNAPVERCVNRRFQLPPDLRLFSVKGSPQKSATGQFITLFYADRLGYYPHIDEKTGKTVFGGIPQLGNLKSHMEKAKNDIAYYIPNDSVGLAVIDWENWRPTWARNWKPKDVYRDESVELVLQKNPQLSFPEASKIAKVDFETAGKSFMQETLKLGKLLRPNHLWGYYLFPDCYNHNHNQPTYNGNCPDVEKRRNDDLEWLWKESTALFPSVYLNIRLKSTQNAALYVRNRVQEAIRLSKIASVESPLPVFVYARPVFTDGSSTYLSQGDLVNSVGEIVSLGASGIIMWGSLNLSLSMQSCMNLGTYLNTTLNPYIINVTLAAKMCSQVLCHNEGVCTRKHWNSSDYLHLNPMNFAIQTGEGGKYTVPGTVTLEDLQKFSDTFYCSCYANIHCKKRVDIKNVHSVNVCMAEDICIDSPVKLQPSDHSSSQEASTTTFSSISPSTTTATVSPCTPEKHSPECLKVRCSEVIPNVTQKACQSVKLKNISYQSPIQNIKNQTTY
In words: turbidimetric hyaluronic acid degradation assay, […] nm. Format: biochemical. The following applies: read-out: % inhibition at 1 mg/mL.

SMILES strings stand for the structures.

T1 sequence (P00772 27-266): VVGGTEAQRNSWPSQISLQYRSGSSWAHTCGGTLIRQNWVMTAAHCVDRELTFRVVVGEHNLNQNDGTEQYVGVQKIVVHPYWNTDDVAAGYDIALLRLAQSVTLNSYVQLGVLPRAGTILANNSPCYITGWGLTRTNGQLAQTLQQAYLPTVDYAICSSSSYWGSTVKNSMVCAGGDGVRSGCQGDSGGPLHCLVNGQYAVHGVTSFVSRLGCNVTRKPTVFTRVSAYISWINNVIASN

As to `CC[C@@H]1CN2CCc3c([nH]c4cccc(OC)c34)[C@@H]2C[C@@H]1/C(=C\OC)C(=O)OC` [mitragynine], the figures for the inhibition at 1000 µg/mL in assay [1] and in assay [2] were 54.5 ± 1.5% and 83.3 ± 1.35%, respectively.
